Measured values as given in ChEMBL document CHEMBL3576778, “Structure-Activity Relationship Studies of a Series of Semisynthetic Lipopeptides Leading to the Discovery of Surotomycin, a Novel Cyclic Lipopeptide Being Developed for the Treatment of Clostridium difficile-Associated Diarrhea” (J Med Chem, 2015).
Values after ≈ are worked out from the molar mass of the structure shown.

Experiments:
Type in all cases: functional
[1] = test system: Staphylococcus aureus; experiment: Antimicrobial activity against daptomycin-non-susceptible Staphylococcus aureus 5033 incubated anaerobically at 37 degC for 48 hrs by agar dilution method; details: Staphylococcus aureus, 5033, 48 h
[2] = test system: Enterococcus faecium; experiment: Potency index, ratio of MIC for daptomycin to MIC for test compound against Enterococcus faecium ATCC 6569 incubated anaerobically at 37 degC for 48 hrs by agar dilution method
[3] = test system: Enterococcus faecalis; experiment: Potency index, ratio of MIC for daptomycin to MIC for test compound against daptomycin-resistant Enterococcus faecalis ATCC 49452 incubated anaerobically at 37 degC for 48 hrs by agar dilution method
[4] = test system: Staphylococcus aureus; experiment: Potency index, ratio of MIC for daptomycin to MIC for test compound against daptomycin-non-susceptible Staphylococcus aureus 42 incubated anaerobically at 37 degC for 48 hrs by agar dilution method
[5] = test system: Staphylococcus aureus; experiment: Antimicrobial activity against daptomycin-non-susceptible Staphylococcus aureus 5076 incubated anaerobically at 37 degC for 48 hrs by agar dilution method; details: Staphylococcus aureus, 5076, 48 h
[6] = test system: Staphylococcus aureus; experiment: Potency index, ratio of MIC for daptomycin to MIC for test compound against daptomycin-non-susceptible Staphylococcus aureus 5060 incubated anaerobically at 37 degC for 48 hrs by agar dilution method
[7] = test system: Staphylococcus aureus; experiment: Antimicrobial activity against daptomycin-susceptible Staphylococcus aureus ATCC 29213 incubated anaerobically at 37 degC for 48 hrs by agar dilution method; details: ATCC 29213, 48 h
[8] = test system: Staphylococcus aureus; experiment: Antimicrobial activity against daptomycin-non-susceptible Staphylococcus aureus 5091 incubated anaerobically at 37 degC for 48 hrs by agar dilution method; details: Staphylococcus aureus, 5091, 48 h
[9] = test system: Staphylococcus aureus; experiment: Potency index, ratio of MIC for daptomycin to MIC for test compound against daptomycin-non-susceptible Staphylococcus aureus 1326 incubated anaerobically at 37 degC for 48 hrs by agar dilution method
[10] = test system: Clostridioides difficile; experiment: Antimicrobial activity against daptomycin-resistant Clostridium difficile ATCC 43596 infected in Syrian golden hamster model of Clostridium difficile-associated diarrhea assessed as protection against microbial infection by measuring survival at day 25 to 26 at 0.5 mg/kg treated once daily for 5 consecutive days starting 4 hrs after spore inoculation
[11] = test system: Staphylococcus aureus; experiment: Potency index, ratio of MIC for daptomycin to MIC for test compound against daptomycin-non-susceptible Staphylococcus aureus 5063 incubated anaerobically at 37 degC for 48 hrs by agar dilution method
[12] = test system: Staphylococcus aureus; experiment: Potency index, ratio of MIC for daptomycin to MIC for test compound against daptomycin-non-susceptible Staphylococcus aureus 399 incubated anaerobically at 37 degC for 48 hrs by agar dilution method
[13] = test system: Clostridioides difficile; experiment: Antimicrobial activity against vancomycin-resistant Clostridium difficile
[14] = test system: Enterococcus faecium; experiment: Antimicrobial activity against daptomycin-resistant Enterococcus faecium ATCC 6569 incubated anaerobically at 37 degC for 48 hrs by agar dilution method; details: ATCC 6569, 48 h
[15] = test system: Staphylococcus aureus; experiment: Antimicrobial activity against daptomycin-non-susceptible Staphylococcus aureus 5008 incubated anaerobically at 37 degC for 48 hrs by agar dilution method; details: Staphylococcus aureus, 5008, 48 h
[16] = test system: Staphylococcus aureus; experiment: Antimicrobial activity against daptomycin-non-susceptible Staphylococcus aureus 5006 incubated anaerobically at 37 degC for 48 hrs by agar dilution method; details: Staphylococcus aureus, 5006, 48 h
[17] = test system: Staphylococcus aureus; experiment: Potency index, ratio of MIC for daptomycin to MIC for test compound against daptomycin-non-susceptible Staphylococcus aureus 5010 incubated anaerobically at 37 degC for 48 hrs by agar dilution method
[18] = test system: Staphylococcus aureus; experiment: Potency index, ratio of MIC for daptomycin to MIC for test compound against daptomycin-non-susceptible Staphylococcus aureus 5008 incubated anaerobically at 37 degC for 48 hrs by agar dilution method
[19] = test system: Clostridioides difficile; experiment: Potency index, ratio of MIC for daptomycin to MIC for test compound against daptomycin-resistant Clostridium difficile NAP1 incubated anaerobically at 37 degC for 48 hrs by agar dilution method
[20] = test system: Staphylococcus aureus; experiment: Potency index, ratio of MIC for daptomycin to MIC for test compound against daptomycin-non-susceptible Staphylococcus aureus 5005 incubated anaerobically at 37 degC for 48 hrs by agar dilution method
[21] = test system: Clostridioides difficile; experiment: Antimicrobial activity against metronidazole-resistant Clostridium difficile
[22] = test system: Staphylococcus aureus; experiment: Antimicrobial activity against daptomycin-non-susceptible Staphylococcus aureus 5063 incubated anaerobically at 37 degC for 48 hrs by agar dilution method; details: Staphylococcus aureus, 5063, 48 h
[23] = test system: Staphylococcus aureus; experiment: Potency index, ratio of MIC for daptomycin to MIC for test compound against daptomycin-non-susceptible Staphylococcus aureus 1146 incubated anaerobically at 37 degC for 48 hrs by agar dilution method
[24] = test system: Staphylococcus aureus; experiment: Potency index, ratio of MIC for daptomycin to MIC for test compound against daptomycin-non-susceptible Staphylococcus aureus 5091 incubated anaerobically at 37 degC for 48 hrs by agar dilution method
[25] = test system: Staphylococcus aureus; experiment: Potency index, ratio of MIC for daptomycin to MIC for test compound against daptomycin-non-susceptible Staphylococcus aureus 5033 incubated anaerobically at 37 degC for 48 hrs by agar dilution method
[26] = test system: Staphylococcus aureus; experiment: Antimicrobial activity against daptomycin-non-susceptible Staphylococcus aureus 5081 incubated anaerobically at 37 degC for 48 hrs by agar dilution method; details: Staphylococcus aureus, 5081, 48 h
[27] = test system: Staphylococcus aureus; experiment: Potency index, ratio of MIC for daptomycin to MIC for test compound against daptomycin-non-susceptible Staphylococcus aureus 5006 incubated anaerobically at 37 degC for 48 hrs by agar dilution method
[28] = test system: Staphylococcus aureus; experiment: Potency index, ratio of MIC for daptomycin to MIC for test compound against daptomycin-non-susceptible Staphylococcus aureus 5076 incubated anaerobically at 37 degC for 48 hrs by agar dilution method
[29] = test system: Staphylococcus aureus; experiment: Potency index, ratio of MIC for daptomycin to MIC for test compound against daptomycin-non-susceptible Staphylococcus aureus 5081 incubated anaerobically at 37 degC for 48 hrs by agar dilution method
[30] = test system: Staphylococcus aureus; experiment: Potency index, ratio of MIC for daptomycin to MIC for test compound against daptomycin-non-susceptible Staphylococcus aureus 1616 incubated anaerobically at 37 degC for 48 hrs by agar dilution method

How did the MIC [1] turn out when `CCCCCc1ccc(/C(C)=C/C(=O)N[C@@H](Cc2c[nH]c3ccccc23)C(=O)N[C@H](CC(N)=O)C(=O)N[C@@H](CC(=O)O)C(=O)N[C@@H]2C(=O)NCC(=O)N[C@@H](CCCN)C(=O)N[C@@H](CC(=O)O)C(=O)N[C@H](C)C(=O)N[C@@H](CC(=O)O)C(=O)NCC(=O)N[C@H](CO)C(=O)N[C@@H]([C@@H](C)CC(=O)O)C(=O)N[C@@H](CC(=O)c3ccccc3N)C(=O)O[C@@H]2C)cc1` was run?
The MIC was 0.25 mg/L (≈ 0.149 µM).

What about the Ratio [2] of the same compound?
Its Ratio is over 8.

And the Ratio [3]?
The Ratio was over 8.

And the Ratio [4]?
The Ratio was 2.

What about the MIC [5] of the same compound?
Its MIC is 0.5 mg/L (≈ 0.297 µM).

And the Ratio [6]?
The Ratio was 2.

What about the MIC [7] of the same compound?
Its MIC is 0.25 mg/L (≈ 0.149 µM).

And the MIC [8]?
Its MIC is 0.5 mg/L (≈ 0.297 µM).

What about the Ratio [9] of the same compound?
Its Ratio is 2.

And the survival at 0.5 mg/kg [10]?
The survival at 0.5 mg/kg was 100%.

And the Ratio [11]?
Its Ratio is 2.

What about the Ratio [12] of the same compound?
Its Ratio is 2.

And the MIC [13]?
The MIC was 0.125 mg/L (≈ 0.0744 µM).

And the MIC [14]?
The MIC was 4 mg/L (≈ 2.38 µM).

What about the MIC [15] of the same compound?
The MIC was 0.5 mg/L (≈ 0.297 µM).

And the MIC [16]?
Its MIC is 0.5 mg/L (≈ 0.297 µM).

What about the Ratio [17] of the same compound?
The Ratio was 2.

What about the Ratio [18] of the same compound?
Its Ratio is 2.

And the Ratio [19]?
The Ratio was 4.

What about the Ratio [20] of the same compound?
Its Ratio is 2.

What about the MIC [21] of the same compound?
Its MIC is 0.5 mg/L (≈ 0.297 µM).

And the MIC [22]?
The MIC was 1 mg/L (≈ 0.595 µM).

And the Ratio [23]?
The Ratio was 2.

What about the Ratio [24] of the same compound?
The Ratio was 2.

What about the Ratio [25] of the same compound?
The Ratio was 2.

And the MIC [26]?
The MIC was 1 mg/L (≈ 0.595 µM).

What about the Ratio [27] of the same compound?
Its Ratio is 2.

What about the Ratio [28] of the same compound?
The Ratio was 2.

And the Ratio [29]?
The Ratio was 2.

And the Ratio [30]?
The Ratio was 2.
